In patent US10874685B2, “Pancreatic cancer therapy and diagnosis” (Deutsches Krebsforschungszentrum Stiftung des Öffentlichen …, priority 2014, dated 2020):
Entries after “also recorded” stand apart in the source; their conditions may differ.

How the values were obtained:
MIAPaCa-2 cells = assay: Orthotopic pancreatic tumor mouse model treated with DRD2 antagonists; assay type: in vivo, mice; conditions: compared to vehicle
Method: Two million MIAPaCa-2 cells were resuspended in 10 μL Matrigel (BD Biosciences, San Jose, Calif.) were orthotopically implanted into the tail of the pancreas of 6-week-old Nod scid gamma animals (Jackson Labs, Bar Harbor, Me.) (day 1). When tumors were palpable (day 27), mice were randomized into 2 groups (n=7 in control group and n=9 in haloperidol group) and injected intraperitoneally with either haloperidol (10 mg/kg) or solvent (dimethylsulfoxide [DMSO] control group) for 12 days. The experiment was terminated when control mice appeared moribund. Weight of the animal and final tumor weight and volume were measured.

[1] = tested on: MIAPaCa-2, PANC-1 and AsPC-1 cells; assay: Free cholesterol measurement (Filipin staining) in PDAC cell lines; assay type: cell-based, human; conditions: 10 μM, 18 hours; vs DMSO
Source text: (§1) Measurement of 2-deoxy-D-glucose uptake shown on the y-axis relative to control by PDAC cell lines (MIAPaCa2, left; PANC-1, middle; AsPC1, right) treated with DMSO (C), pimozide (P) or haloperidol (H) (FIG. 10A). Abundance of free cholesterol, as measured by staining with filipin, after treatment with haloperidol (H) or pimozide (P) in PDAC cell lines (MIAPaCa2, left; PANC-1, middle; AsPC1, right) (FIG. 10B top). Representative micrographs of filipin-labelled cholesterol. PDAC (MIAPaCa2, top; PANC-1, middle; AsPC1, bottom) cells were seeded for 24 hours and treated with 10 μM haloperidol (H) or pimozide (P) or DMSO for 18 hours (FIG. 10B bottom). Red-fluorescence represents propidium iodide (PI)-stained nuclei and blue-fluorescence represents filipin-stained cholesterol. mRNA levels of genes relative to R-actin shown on the y-axis involved in cholesterol biosynthesis (from left to right: SREBP1, SREBP2, INSIG1, HMGCR, LDLR) measured by qRT-PCR 18 hours post-treatment with DMSO (C), haloperidol (H) or pimozide (P) in three PDAC cell lines (MIAPaCa2, top; PANC-1, middle; AsPC1, bottom) (FIG. 10C).
Cancer cells were seeded for 24 hours and treated with pimozide, haloperidol or DMSO for 18 hours. The cells were fixed with paraformaldehyde, stained with Filipin™ and propidium iodide (PI), and photographed. Filipin™ is a fluorescent polyene antibiotic that binds to free cholesterol. […]

[2] = tested on: MIAPaCa-2, PANC-1 and AsPC-1 cells; assay: Glucose uptake measurement (labelled 2-DG) in PDAC cell lines; assay type: cell-based, human; conditions: all three cell lines; relative to DMSO control
Source text: as §1
The induction effect of pimozide or haloperidol on labeled 2-DG uptake in cancer cells were determined from measurement of the fluorescence intensity of cell lysates. […]

[3] = tested on: SREBP1, SREBP2, INSIG1, HMGCR, LDLR mRNA; assay: qRT-PCR of cholesterol biosynthesis genes in PDAC cell lines; assay type: cell-based, human; conditions: qRT-PCR 18 hours post-treatment; relative to actin
Source text: as §1
For mice xenograft tissue samples and cultured cells, the miRNeasy kit (Qiagen, Valencia, Calif.) was used to extract total RNA. […] Quantification values were calculated according to a standard curve method created from a dilution series. […]

[4] = tested on: PANC-1, MIAPaCa-2 and AsPC-1 cell lines; assay: PDAC cell line growth curves under combination therapy; assay type: cell-based, human; conditions: over time
Source text: FIGS. 11A and 11B show PDAC cell line growth curves following combination therapy with DRD2 antagonists, 2-deoxy-D-glucose, and atorvastatin. Percentage cell growth shown on the y-axis following treatment with control (blue line), pimozide (Pim, gray line), atorvastatin and 2-deoxy-D-glucose (ATR+2-DG, red line) and combination of Pim and ATR+2-DG (green line) over time in PANC-1 (top), MIAPaCa-2 (middle) and AsPC-1 (bottom) cell lines (FIG. 11A). Haloperidol (Hal, gray line) is used as the DRD2 antagonist for use alone or in combination with ATR+2-DG as described in A (FIG. 11B). Dosage are indicated for each cell line.
PDAC cell proliferation was measured during pharmacological inhibition of DRD2 alone and in combination with blockade of glycolysis and cholesterol synthesis. To suppress glycolysis, 2-DG, a glucose analog which is a competitor inhibitor of glucose metabolism, was used. To inhibit cholesterol synthesis, atorvastatin (ATR), a competitive inhibitor of 3-hydroxy-3-methylglutaryl-coenzyme A (HMG-CoA) reductase in the cholesterol biosynthesis pathway was used.

[5] = tested on: KPC-023, KPC-01 and KPC-LM pancreatic cancer cell lines; assay: Viability of primary and metastatic pancreatic cancer cell lines isolated from KPC mice; assay type: cell-based; conditions: primary (KPC-023, KPC-01) and metastatic (KPC-LM) lines
[6] = tested on: pancreatic cancer cell lines (PANC-1, CFPAC-1, CAPAN-1, MIAPaCa-2, BXPC-3); assay: Sulforhodamine B (SRB) cytotoxicity assay on pancreatic cancer cell lines; assay type: cell-based, human; conditions: increasing concentration, 72 h
Method: PANC-1, CFPAC-1, CAPAN-1, MIAPaCa-2, BXPC-3 and fibroblast cells were seeded for 24 h and were exposed to increasing concentration of Pimozide and vehicle for 72 h (FIG. 3A). The same procedure was followed for treatment of cancer cell lines with L741 (FIG. 3B). Cell viability was characterized using a SRB assay. Values are the mean+/−SD of six independent experiments.
Five pancreatic ductal cancer cell lines with various degree of differentiation were obtained from American Type Culture Collection (Rockville, USA) and Normal Human Dermal Fibroblasts (NHDF) obtained from PromoCell. BXPC-3 (moderately differentiated) as well as poorly differentiated human pancreatic cancer cell lines, PANC-1 and MIAPaCa-2, have been established from primary tumor. AsPC-1, CAPAN-1 and CFPAC-1 which represent well differentiated cell lines was isolated from ascites and liver metastasis of pancreas adenocarcinoma. All cell lines contain mutation in P53 whereas K-ras mutation reported in all with the exception of BxPc3. BRCA2 mutation just reported in CAPAN-1 cells.
Sulforhodamine B sodium salt (sigma) was used to assess cell viability and IC50 determination of pancreatic cancer cells. […] Cell viability was specified by using plate reader (TECAN) with measuring of absorbance at 570 and 650 nm (background) in treated or untreated 96 well plate.

PANC-1 cells = assay: Wound healing (scratching) assay for cell migration; assay type: cell-based, human; conditions: PANC-1, increasing concentrations, 10 h
Method: PANC-1 cells were plated in the chamber were already attached in 12 well plate and allowed to grow for 24 h. Then, a wound was made in the confluent monolayer by removing the chamber. Cells were exposed to increasing concentration of Pimozide (FIG. 6A) or L741 (FIG. 6B) and vehicle for 10 h. Wound gap closure was measured for each drug concentration by comparing the gap at time 0 h to the one at the time 10 h when the gap closed in negative control and normalized to untreated condition.
PANC-1 cells were seeded into the 35 mm-dish culture-silicon Insert frames from Ibidi where already attached to the 6 well culture plate. When 96-98% confluency was achieved, the insert frames were removed using sterile forceps to reach cell free gap. To create a reference point for subsequent measurements, three different part of the gap was marked on the underside of the plastic. Floating cells and cell debris were washed using PBS, relative culture medium was added to each wells and migration distance was photographed using a Zeiss Axiovert 24 light microscope at zero time in the marked areas. Afterward, the wells were treated by addition of DMSO as control and different increasing concentration of Pim and L741. Plates were then placed into the incubator and the cells were allowed to migrate until the time when the gap for the […] closed (t time). Images were taken from the marked areas again. This assay was performed employing various concentrations of drugs at which maximum 5% viability inhibition was observed after 10 h treatment.

MIAPaCa-2 xenograft = assay: Combination therapy in NSG mice, MIAPaCa-2 xenograft model; assay type: in vivo; conditions: i.p. 16 days; pimozide 10 mg/kg daily; gemcitabine 20 mg/kg every 4 days
Source text: Tumor volumes normalized to initial measurement shown in the y-axis every four days following treatment with either vehicle (gray line), the chemotherapeutic gemcitabine (green line), a combination therapy of 2-deoxy-D-glucose, atorvastatin and pimozide (2DG+ATR+Pim, redline), or a combination therapy of 2DG+ATR+Pim and gemcitabine (2DG+ATR+Pim+Gem, red dashed line) (FIG. 12A). […] Tumor weight (FIG. 12C) and volume of samples (FIG. 12D) harvested following treatment with, from left to right, control (Vehicle), 2DG+ATR, Pim alone, Pim+2DG+ATR, Gem alone, 2DG+ATR+Gem, Pim+Gem, or Pim+2DG+ATR+Gem.
NOD severe combined immunodeficiency gamma (NSG) mice were subcutaneously injected in the right flank with five million MIAPaCa-2 cells. Once tumors were detectable (200 mm^3), mice were randomized into 8 groups (5 in each group) and treated through intraperitoneal injection as indicated for 16 days. All drugs were given every day whereas gemcitabine was given every 4 days, alone or in combination. Experiment was terminated when control animals became moribund. The growth of tumors was measured every 4 days. Tumors were harvested and photographed. Tumor weights and volumes were measured.
The efficacy of the combined treatment approach was investigated using a MIAPaCa-2 xenograft model of pancreatic cancer.

[7] = tested on: locally advanced, unresectable, or metastatic pancreatic adenocarcinoma; conditions: patients with locally advanced; cited from earlier work
pituitary tumor cells = conditions: after treatment; cited from earlier work

O=C(CCCN1CCC(O)(c2ccc(Cl)cc2)CC1)c1ccc(F)cc1 [haloperidol]
metastatic dissemination (MIAPaCa-2 cells): reduces tumor volume, metastasis | tumor volume (MIAPaCa-2 cells; haloperidol 10 mg/kg intraperitoneally for 12 days): reduces tumor volume | abundance of free cholesterol (Filipin staining) [1]: increased the abundance of free cholesterol; also recorded: enhanced glucose and cholesterol uptake | glucose uptake (intracellular labelled 2-deoxy-D-glucose) [2]: elevated uptake of glucose; also recorded: enhanced glucose and cholesterol uptake | expression of genes involved in lipogenesis / cholesterol biosynthesis [3]: inducing expression of genes involved in lipogenesis | cell growth [4]: reduced cell growth | viability of KPC mouse pancreatic cancer cell lines [5]: sensitive; also recorded: Dose-dependent effects

OC1(c2ccc(Cl)cc2)CCN(Cc2c[nH]c3ccccc23)CC1 [L-741,626]
cell viability of pancreatic cancer cell lines [6]: Specific toxicity effect; also recorded: dose dependent toxicity effect | tumor cell migration (wound gap closure) (PANC-1 cells): tumor cell migration was affected | tumor cell migration (wound gap closure) (PANC-1 cells; listed as L741): dose dependent inhibitory effect | viability of KPC mouse pancreatic cancer cell lines [5]: sensitive; also recorded: Dose-dependent effects

Nc1ccn([C@@H]2O[C@H](CO)[C@@H](O)C2(F)F)c(=O)n1 [gemcitabine, 4-amino-1-[(2R,4R,5R)-3,3-difluoro-4-hydroxy-5-(hydroxymethyl)oxolan-2-yl]pyrimidin-2-one]
tumor volume (MIAPaCa-2 xenograft): reduced tumor weight and volume | tumor weight (MIAPaCa-2 xenograft): reduced tumor weight | 1-year survival rate [7]: 21% | median overall survival (OS) [7]: 6 months

NCCc1ccc(O)c(O)c1 [dopamine]
cancer cell viability (pituitary tumor cells): decreased significantly
